Test results taken from patent US20180193350A1, “TREATMENT OF NUT MIDLINE CARCINOMA” (Tensha Therapeutics, Inc., priority 2015, published 2018).

Columns and labels:
[1] = test system: lactate dehydrogenase (LDH); assay: LDH levels in patients treated with TEN-010; format: in vivo, human; conditions: non-NMC patient 002-021 (FIG. 2B), despite significant rise in CD11b levels
Excerpt: Patients aged 18 years or older with histologically confirmed advanced solid tumors with progressive disease requiring therapy were enrolled in the study. In particular, patients with histologically confirmed advanced solid malignancy with progressive disease, NMC, or advanced aggressive diffuse large B cell lymphoma (DLBCL) were enrolled in the study. Patients with hemotologic malignancies were not enrolled in the study.
TEN-010 was formulated as a sterile, preserved isotonic solution for subcutaneous (SC) administration. A dose of 0.45 mg/kg was administered on Days 1 through 21 (“ON segment”) of each cycle without interruption, followed by a 7-day dose-free interval (“OFF segment”) in a 28-day treatment cycle. Injections were rotated amongst several sites including bilateral upper arms and thighs and mid and lower abdomen and buttocks.
LDH levels were measured using standard protocols, using a chemistry analyzer, e.g., Beckman Coulter. See, e.g., Lactate OSR6193 procedure published March 2012 (webcache.googleuserconent.com/search?q=cache:iyYi7vCetH4J:https://www.beckmancoulter.com/wsrportal/techdocs%3Fdocname%3D/cis/BAOSR6x93%2525%2525/EN_LACTATE_BAOSR6x93_US.doc+&cd=2&hl=en&ct=clnk&gl=us), incorporated by reference in its entirety.

CD11b on CD14+ monocytes = assay: CD11b expression levels on CD14+ monocytes in patients treated with TEN-010 (flow cytometry, MESF); format: in vivo, human
Excerpt: Patients aged 18 years or older with histologically confirmed advanced solid tumors with progressive disease requiring therapy were enrolled in the study. In particular, patients with histologically confirmed advanced solid malignancy with progressive disease, NMC, or advanced aggressive diffuse large B cell lymphoma (DLBCL) were enrolled in the study. Patients with hemotologic malignancies were not enrolled in the study. TEN-010 was formulated as a sterile, preserved isotonic solution for subcutaneous (SC) administration. A dose of 0.45 mg/kg was administered on Days 1 through 21 (“ON segment”) of each cycle without interruption, followed by a 7-day dose-free interval (“OFF segment”) in a 28-day treatment cycle. Injections were rotated amongst several sites including bilateral upper arms and thighs and mid and lower abdomen and buttocks. Whole blood specimens were collected at specified time points (e.g., see FIG. 1) in sodium heparin vacutainers. Briefly, two 12×75 mm test tubes per donor were labeled with specimen ID and appropriate cocktail name (see Table 2 below). 100 μl of sodium heparin anticoagulated whole blood was pipetted into the test tubes. The appropriate titrated volume of antibody cocktails was pipetted into the correspondingly labeled tubes. The appropriate titrated amount of CD14 PerCP, was added to all tubes to identify CD14 positive monocytes. The tubes were vortexed and were allowed to incubate for 30 minutes at room temperature in the dark. The red blood cells were lysed by adding 4 ml of an ammonium chloride-based whole blood lysing reagent to each tube. The tubes were capped and inverted to mix well prior to incubating in the dark at room temperature for 5 minutes. After the incubation, the tubes were centrifuged at 400 RCF for 5 minutes, the supernatant decanted and the tubes rack-raked to disperse cell pellet. The cells were washed with 2 ml of PBS with 1% BSA and centrifuged. To detect biotin conjugated CD45 RO antibody, the appropriate titrated amount of SA-BV605 (streptavidin (SA) conjugated to brilliant violet (BV) 605) was added to each tube and tubes were vortexed. After a 20 minute incubation in the dark at room temperature, the cells were washed with 2 ml of PBS with 1% BSA and centrifuged. The supernatant was decanted and the cells were rack-raked to disperse the cell pellet. Each tube received 500 μl of 1% paraformaldehyde and stored at 2-8 C until acquisition on the day of preparation. The tubes were acquired on a Becton Dickinson (BD) FACSCanto™ II flow cytometer with appropriate instrument settings, acquiring approximately 250,000 total events per tube. All analyses for flow cytometry were performed on WinList 7.0 (Verity Software House, Topsham, Me.) with a direct data exchange link to Microsoft® Excel 2003 or equivalent. For FIG. 1, baseline value (pre-dose at cycle 1, day 1, i.e., C1D1) was set at an arbitrary MESF value (e.g., 100) for each patient; all subsequent values obtained from the study were normalized to the baseline value. For FIG. 2, unnormalized MESF values are shown.

[2] = test system: bromodomains of the BET family; conditions: Bres et al. 2008; cited from earlier work

Row | LDH levels [1] | Structure (SMILES) | CD11b levels following the off-drug segment (C2D1) (CD11b on CD14+ monocytes; NMC patient 004-001) | effectiveness by C2D1 (CD11b on CD14+ monocytes; NMC patient 004-001, suggested by CD11b increase, patient died shortly thereafter) | decrease of CD11b levels relative to baseline value (CD11b on CD14+ monocytes; all 6 patients, 0.45 mg/kg SC Days 1-21 of 28-day cycle, by C1D15 vs pre-dose C1D1) | CD11b levels at start of second cycle (C2D1) (CD11b on CD14+ monocytes; all patients except NMC patient 004-001, after 21 days on-drug and 7 days off-drug) | CD11b levels (CD11b on CD14+ monocytes; non-NMC patient 002-021 (FIG. 2B)) | binding to bromodomains of the BET family [2]
1 | remained constant | Cc1sc2c(c1C)C(c1ccc(Cl)cc1)=N[C@@H](CC(=O)NCCCN1CCN(C)CC1)c1nnc(C)n1-2 [TEN-010] | dramatically increased | not effective | at least 50% | held steady | significant rise | 
2 |  | Cc1sc2c(c1C)C(c1ccc(Cl)cc1)=N[C@@H](CC(=O)OC(C)(C)C)c1nnc(C)n1-2 [JQ1] |  |  |  |  |  | specifically binds
